What was measured:
[1] = biological target: human GABAA α1β2γ1 receptor (Homo sapiens (Human), UniProt P14867+Q8N1C3); assay: Radioligand binding assay for γ1-containing GABAA subtypes, [3H]RO7239181 competition (α1β2γ1)
Method: The affinity of compounds at GABAA γ1 subunit-containing receptors was measured by competition for [^3H]RO7239181 (67.3 Ci/mmol; Roche) binding to membranes from HEK293F cells (ThermoFisher R79007) expressing human (transiently transfected) receptors of composition α5β2γ1, α2β2γ1, α1β2γ1.
Harvested pellets from HEK293F cells expressing the different GABAA receptor subtypes were resuspended in Mannitol Buffer pH 7.2-7.4 (Mannitol 0.29 M, Triethylamine 10 mM, Acetic acid 10 mM, EDTA 1 mM plus protease inhibitors (20 tablets Complete, Roche Diagnostics Cat. No. 05 056 489 001 per liter)), washed two times and then resuspended at 1:10 to 1:15 dilution in the same buffer. Cell disruption was performed by stirring the suspension in a Parr vessel #4637 at 435 psi for 15 minutes, and then the suspensions were centrifuged at 1000×g for 15 minutes at 4° C. (Beckman Avanti J-HC; rotor JS-4.2). The supernatant (S1) was transferred in a 2 l Schott flask and the pellet (P1) was resuspended with Mannitol Buffer up to 175 ml. The resuspended pellet was transferred into a 250 ml Corning centrifugal beaker and centrifuged at 1500×g for 10 minutes at 4° C. (Beckman Avanti J-HC; rotor JS-4.2). The supernatant (S1) was then transferred in the 2 l Schott flask and the pellet was discarded. The supernatants (S1) were centrifuged in 500 ml Beckman polypropylene centrifugal beaker at 15′000×g for 30 minutes at 4° C. (Beckman Avanti J-20 XP; rotor JLA-10.500). The pellet (P2) was resuspended with Mannitol Buffer 1:1 and frozen at −80° C. The supernatant (S2) was centrifuged in 100 ml Beckman polypropylene centrifugal tubes at 48000×g for 50 minutes at 4° C. (Beckman Avanti J-20 XP; rotor JA-18). The supernatant (S3) was discarded and the pellet (P3) was resuspended with 1:1 Mannitol Buffer. The P2 and P3 protein concentration was determined with the BIORAD Standard assay method with bovine serum albumin as standard and measured on the NANO-Drop 1000. The membrane suspension was aliquots (500 μl per tube) and stored at −80° C. until required.
Membrane homogenates were resuspended and polytronised (Polytron PT1200E Kinematica AG) in Potassium Phosphate 10 mM, KCl 100 mM binding buffer at pH 7.4 to a final assay concentration determined with a previous experiment.
Assays were incubated to equilibrium for 1 hour at 4° C. and then, membranes were filtered onto unifilter (96-well white microplate with bonded GF/C filters preincubated 20-50 minutes in 0.3% Polyethylenimine) with a Filtermate 196 harvester (Packard BioScience) and washed 4 times with cold Potassium Phosphate 10 mM pH 7.4, KCl 100 mM binding buffer. After anhydrousing, filter-retained radioactivity was detected by liquid scintillation counting. Ki values were calculated using Excel-Fit (Microsoft) and are the means of two determinations.

[2] = biological target: α2β2γ1 GABAA receptor subtype (Homo sapiens (Human), UniProt P47869+Q8N1C3); assay: Two-electrode voltage clamp electrophysiology in Xenopus oocytes expressing GABAA receptors (modulation of GABA EC20 current); type: cell-based; details: for Efficacy (GABA)%: % modulation of GABA EC20 = 100*(Fold increase-1), α2β2γ1 oocytes, compound at approx. 30-fold Ki; for Fold increase h-GABA-A α2β2γ1 oocyte @ 30-fold Ki: Xenopus oocytes expressing α2β2γ1, compound at approx. 30-fold its Ki α2β2γ1, GABA EC20 current
Outline: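 Each concentration was tested on ≥3 oocytes held at −80 mV at room temperature, recorded 3-5 days post-injection. A control and a test response to EC20 GABA (1.5 min each) were superimposed and their point-by-point ratio taken. Peak ratio reported as % modulation of GABA EC20 = 100×(fold increase−1).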

[3] = biological target: human GABAA α1β3γ2 receptor (Homo sapiens (Human), UniProt P14867+P18507); assay: Radioligand binding assay for γ2-containing GABAA subtypes, [3H]Flumazenil competition (α1β3γ2); details: for γ2/γ1 Selectivity Ratio: Ki α1β3γ2 (nM)/Ki α2β2γ1 (nM); for LogSel: Log[Ki α1β3γ2 (nM)/Ki α2β2γ1 (nM)]
[4] = biological target: human GABAA α2β2γ1 receptor (Homo sapiens (Human), UniProt P47869+Q8N1C3); assay: Radioligand binding assay for γ1-containing GABAA subtypes, [3H]RO7239181 competition (α2β2γ1)
[5] = biological target: human GABAA α5β2γ1 receptor (Homo sapiens (Human), UniProt P31644+Q8N1C3); assay: Radioligand binding assay for γ1-containing GABAA subtypes, [3H]RO7239181 competition (α5β2γ1)
[6] = Ki h-GABAA α2β2γ1, [3H]RO7239181 competition binding, human GABAA α2β2γ1
[7] = Ki h-GABAA α2β2γ1, displacement of [3H]RO7239181, membranes of HEK293F cells expressing human receptors, means of two determinations

Structure (SMILES)	Ki [1] [nM]	Efficacy (GABA)% [2] [%]	Fold increase h-GABA-A α2β2γ1 oocyte @ 30-fold Ki [2]	Ki [3] [nM]	γ2/γ1 Selectivity Ratio [3]	LogSel [3]	Ki [4, 6] [nM]	Ki [4, 7] [nM]	Ki [5] [nM]
C[C@@H]1N=C(c2c(F)cccc2F)c2c(ccc(C(F)(F)F)c2Cl)-n2nc(C(=O)NCCO)nc21 [Example 107, (4S)-7-chloro-6-(2,6-difluorophenyl)-N-(2-hydroxyethyl)-4-methyl-8-(trifluoromethyl)-4H-[1,2,4]triazolo[1,5-a][1,4]benzodiazepine-2-carboxamide]	65.1	103	2.03	3700	319.1	2.50	14	11.6	2.5
C[C@H](O)CNC(=O)c1nc2n(n1)-c1ccc(C(F)(F)F)c(Cl)c1C(c1c(F)cccc1F)=N[C@H]2C [Example 109, (4S)-7-chloro-6-(2,6-difluorophenyl)-N-[(2S)-2-hydroxypropyl]-4-methyl-8-(trifluoromethyl)-4H-[1,2,4]triazolo[1,5-a][1,4]benzodiazepine-2-carboxamide]	40.8	126	2.26	3120	258.7	2.41	12.1	12.1	3.07
C[C@@H]1N=C(c2c(F)cccc2F)c2c(ccc(C(F)(F)F)c2Cl)-n2nc(C(=O)N3CCS(=O)(=O)CC3)nc21 [Example 114, [(4S)-7-chloro-6-(2,6-difluorophenyl)-4-methyl-8-(trifluoromethyl)-4H-[1,2,4]triazolo[1,5-a][1,4]benzodiazepin-2-yl]-(1,1-dioxo-1,4-thiazinan-4-yl)methanone]	23.2	88	1.88	3090	325.5	2.51	9.5	9.5	3.73
C[C@@H]1N=C(c2c(F)cccc2F)c2c(ccc(C(F)(F)F)c2Cl)-n2nc(C(=O)NN(C)C)nc21 [Example 117, (4S)-7-chloro-6-(2,6-difluorophenyl)-N′,N′,4-trimethyl-8-(trifluromethyl)-4H-[1,2,4]triazolo[1,5-a][1,4]benzodiazepine-2-carbohydrazide]	99.2	92	1.92	5510	276.4	2.44	20	20	3.14
C[C@@H]1N=C(c2c(F)cccc2F)c2c(ccc(C(F)(F)F)c2Cl)-n2nc(N3CCOC3=O)nc21 [Example 121, 3-[(4S)-7-chloro-6-(2,6-difluorophenyl)-4-methyl-8-(trifluoromethyl)-4H-[1,2,4]triazolo[1,5-a][1,4]benzodiazepin-2-yl]oxazolidin-2-one]	39.1	52	1.52	1210	218.2	2.34	5.5	5.5	1.43
CNC(=O)Nc1nc2n(n1)-c1ccc(C(F)(F)F)c(Cl)c1C(c1c(F)cccc1F)=N[C@H]2C [Example 129, 1-[(4S)-7-chloro-6-(2,6-difluorophenyl)-4-methyl-8-(trifluoromethyl)-4H-[1,2,4]triazolo[1,5-a][1,4]benzodiazepin-2-yl]-3-methyl-urea]	49.9	36	1.36	3350	558.0	2.75	6	6	1.58
CCOC1CN(C(=O)c2nc3n(n2)-c2ccc(C(F)(F)F)c(Cl)c2C(c2ncccc2F)=N[C@H]3C)C1 [Example 137, [(4S)-7-chloro-6-(3-fluoro-2-pyridyl)-4-methyl-8-(trifluoromethyl)-4H-[1,2,4]triazolo[1,5-a][1,4]benzodiazepin-2-yl]-(3-ethoxyazetidin-1-yl)methanone]	130	129	2.29	10500	246.0	2.39	42.6	42.6	6.58
Cc1nnc(-c2nc3n(n2)-c2ccc(C(F)(F)F)c(Cl)c2C(c2ncccc2F)=N[C@H]3C)o1 [Example 144, 2-[(4S)-7-chloro-6-(3-fluoro-2-pyridyl)-4-methyl-8-(trifluoromethyl)-4H-[1,2,4]triazolo[1,5-a][1,4]benzodiazepin-2-yl]-5-methyl-1,3,4-oxadiazole]	179	169	2.69	13500	183.6	2.26	73.5	73.5	8.3
C[C@@H]1N=C(c2ncccc2F)c2c(ccc(C(F)(F)F)c2Cl)-n2cc(C(=O)NCC(C)(C)O)nc21 [Example 159, (4S)-7-chloro-6-(3-fluoro-2-pyridyl)-N-(2-hydroxy-2-methyl-propyl)-4-methyl-8-(trifluoromethyl)-4H-imidazo[1,2-a][1,4]benzodiazepine-2-carboxamide]	70.4	217	3.17	8320	195.6	2.29	43	42.6	11.4
